# Several values for one entry are separate records, joined by “and”; a condition that tells them apart may be missing. Identical values can stand only once.
# Tests used:
# [1] = target: T1, beta amyloid peptide Aβ(1-40) (Homo sapiens, UniProt P05067); experiment: BAPA (Beta-Amyloid Peptide Aggregation), pH 6.0; type: biochemical; details: Aβ(1-40) 33 μM, pH 6.0, 2 to 4 hours at room temperature, filtration
# T1 construct: 0.5 mg/mL AP (140) peptide in 20% HFIP+0.1 μL/assay radioiodinated ^125I Aβ(1-40)
# T1 sequence (P05067 672-711 limits assumed): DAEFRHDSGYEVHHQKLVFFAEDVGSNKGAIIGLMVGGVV
# Procedure: BAPA (Beta-Amyloid Peptide Aggregation)
# This assay is used to provide a measure of inhibition by a compound against the aggregation behavior of the beta amyloid peptide.
# The purpose of this assay is to provide a higher volume method of assaying the amount of beta amyloid aggregation using an endpoint assay based on filtration. In this assay, hexafluoroisopropanol (HFIP) is used to break down the initial amyloid peptide to a monomer state and use a concentration of 33 μM which is high enough so that aggregation will occur at pH 6.0 in several hours.
# β-Amyloid Peptide Aggregation, pH 6.0 (BAPA)
# In a 96-well plate (Costar 3794), we add […] 50 mM Phosphate Buffer, pH 6.0, 10 μL 0.5 mg/mL AP (140) peptide in 20% HFIP+0.1 μL/assay radioiodinated ^125I Aβ(1-40) [^125I Aβ(1-40)], and 1 μL of the compound to be tested starting at 50 mM with a concentration of DMSO <1%. Then, we incubate for 2 to 4 hours at room temperature. We stop the reaction with […] of 50 mM phosphate buffer, pH 6.0, and filter it through a 0.2 μm 96-well filter plate (Millipore MAGU N22). We wash the filter plate with 100 μL of the same phosphate buffer. Aggregation was detected on a Microbeta counter after impregnating the filters with Meltilex (1450-441) and is corrected for background.
# Aβ(1-42) = target: T2, Aβ(1-42) (Homo sapiens, UniProt P05067); experiment: BATYM Assay (Aβ(1-42) aggregation, Thioflavin T fluorescence); type: biochemical; details: Aβ 1-42 final concentration 100 μM, PBS pH 7.4, 37° C., 1 day, ThT fluorescence
# T2 construct: Required Aβ(1-42)(California Peptide) was dried from its hexafluoroisopropanol (HFIP) stock solution; purchased California Peptide
# T2 sequence (P05067 672-713 limits assumed): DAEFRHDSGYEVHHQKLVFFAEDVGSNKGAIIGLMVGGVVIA
# Procedure: Required Aβ(1-42)(California Peptide) was dried from its hexafluoroisopropanol (HFIP) stock solution. The Aβ(1-42) was dissolved in dimethylsulfoxide (DMSO) and then mixed with phosphate buffered saline, (PBS) (pH 7.4). The mixed Aβ(1-42) solution was filtered with a 0.2 μm Omnipore membrane syringe filter (Millipore, Bedford, Mass.). The compound to be tested in DMSO (50 times concentrate) was put into each well (0.5 μL/well) of a 96-well plate. The Aβ(1-42) solution was added into each well (24.5 μL/well). The plate was centrifuged at 1,000 g for 5 minutes and incubated at 37° C. for 1 day (Aβ 1-42; final concentration 100 μM).
# After incubation Thioflavin T (ThT) (30 μM) solution in glycine-NaOH buffer (pH 8.5, 50 mM) was added into each well (250 μL/well), fluorescence was measured (ex. 440/20 nm; em 485/20 nm) using a fluorescence plate reader. The inhibitory activity was calculated as the reduction of fluorescence with the following formula:
# inhibition (%)={(F(Aβ)−F(Aβ+compound)}/{F(Aβ)−F(solvent+compound)}×100
# The IC50s were calculated by a curve fitting program using the following equation. The data were obtained from two different experiments in triplicate.
# x=concentration of tested compound (M),
# Aβ(1-40) [2] = target: T3, Aβ(1-40) (Homo sapiens, UniProt P05067); experiment: BASSR (Beta-Amyloid Self-Seeding Radioassay), inhibitors of self-seeded amyloid fibril growth; type: biochemical; details: 30 μM soluble Aβ(1-40) + 125I-labeled Aβ(1-40), pH 7.5, 37° C., 3 to 5 hours, filtration
# T3 construct: Soluble Aβ(1-40) peptide (Bachem, Torrance, Calif.); purchased Bachem, Torrance, Calif
# T3 sequence (P05067 672-711 limits assumed): as the sequence (P05067 672-711 limits assumed) above
# Procedure: BASSR (Beta-Amyloid Self-Seeding Radioassay)
# (§1) An assay for inhibitors of self-seeded amyloid fibril growth
# Assay Buffer—50 mM sodium phosphate, pH 7.5, 100 mM NaCl, 0.02% NaN3, 1 M urea (filter and store at 4° C.)
# Soluble Aβ(1-40) peptide (Bachem, Torrance, Calif.)—2.2 mg/mL in deionized H2O (stored in aliquots at −20° C., keep on ice when thawed) will self-seed after 1 week storage. Typically, the solution should be stored until no lag phase is seen in the assay.
# ^125I-labeled Aβ(1-40)—150K-350K cpm/μL in 100% acetonitrile—0.1% trifluoroacetic acid (TFA)—1% β-mercaptoethanol (aliquots stored at −20° C.). ^125I-labeled Aβ(1-40) can be made in accordance with the procedure set forth by H. Levine, III in Neurobiol. Aging, 16:755 (1995), which is hereby incorporated by reference, or this reagent may be purchased from Amersham, Arlington Heights, Ill.
# Final assay conditions: 30 μM soluble Aβ(1-40) in deionized water in assay buffer+20-50K cpm ^125I-labeled Aβ(1-40) per assay. Compound to be tested is dissolved in dimethylsulfoxide (DMSO), typically 5-50 mM stock, such that the final concentration of DMSO is <1% v/v in the assay.
# Assay: Reaction mixture for 50 assays (on ice) is comprised of 0.1-0.2 μL of […] ^125I-labeled Aβ(1-40)+1 μL of soluble Aβ(1-40)+13.5 μL assay buffer per assay. The following are the amounts of the components of the reaction mixture sufficient for 50 assay wells.
# 1) Prepare reaction mixture above by mixing components and storing on ice.
# 2) Pipet 14.5 μL of reaction mixture into each of 50 wells on a polypropylene U-bottom 96-well microtiter plate on ice (Costar 3794).
# (§2) 3) Add 1.7 μL of diluted compound to be tested to each well in a column of eight, including solvent control. Serial 3-fold dilutions from 1 mM (100 μM final) in assay buffer−urea=7 dilutions+zero. Each 96-well plate can therefore accommodate 11 samples+1 Congo Red control (0.039-5 μM final in 2-fold steps).
# 4) Seal the plate with aluminum film (Beckman 538619) and incubate for 10 minutes on ice.
# 5) Raise the temperature to 37° C. and incubate for 3 to 5 hours (depending on the lot of the peptide).
# 6) Remove the aluminum film and add 200 μL/well of ice cold assay buffer with urea, collecting the radiolabeled fibrils by vacuum filtration through 0.2 μm pore size GVWP filters in 96-well plates (Millipore MAGV N22, Bedford, Mass.). Determine the radioactivity of the filters using standard methods well-known to those skilled in the art.
# Aβ(1-40) [3] = target: T3, Aβ(1-40); experiment: BASST (Beta-Amyloid Self-Seeding, ThioflavinT), inhibitors of self-seeded amyloid fibril growth; type: biochemical; details: 30 μM soluble Aβ(1-40), pH 7.5, 37° C., 3 to 5 hours, thioflavin T fluorescence
# Procedure: BASST (Beta-Amyloid Self-Seeding, ThioflavinT)
# as §1
# Assay Buffer—50 mM sodium phosphate, pH 7.5, 100 mM NaCl, 0.02% NaN3, 1 M urea (filter and store at 4° C.).
# Soluble Aβ(1-40)—2.2 mg/mL in deionized H2O (store in aliquots at −20° C., keep on ice when thawed) will self-seed after 1 week storage. Typically, the solution should be stored until no lag phase is seen in the assay.
# Final assay conditions: 30 μM soluble Aβ(1-40) in deionized water in assay buffer. Compound to be tested is dissolved in DMSO, typically 5-50 mM stock, such that the final concentration of DMSO is <1% v/v in the assay.
# Assay: Reaction mixture for 50 assays (on ice) comprised of 1 μL of soluble Aβ(1-40)+13.5 μL assay buffer per assay. The following are the amounts of the components of the reaction mixture that result in each of the 50 assay wells.
# 1) Prepare the reaction mix above by mixing the components and storing on ice.
# 2) Pipet […] of reaction mixture into each of 50 wells of a polystyrene U-bottom 96-well microtiter plate (Corning 25881-96) on ice.
# as §2, with “[…]” for “μL”
# 4) Seal the plate with aluminum film and incubate for 10 minutes on ice.
# 5) Raise the temperature to 37° C. and incubate for 3 to 5 hours (depends on the lot of the peptide).
# 6) Remove the aluminum film and add 250 μL/well of 5 μM thioflavin T (ThT) [T-3516, Sigma-Aldrich] in 50 mM glycine-NaOH, pH 8.5. Read fluorescence on a plate reader (ex=440 nm/20 nm; em=485 nm/20 nm) within 5 minutes.
SMILES,melting point,IC50 [1],IC50 (Aβ(1-42)),IC50 (Aβ(1-40) [2]),IC50 (Aβ(1-40) [3])
"CCCCN(CCCC)c1ccc(/C=C2\SC(=S)N(CC(=O)NS(=O)(=O)c3ccccc3)C2=O)cc1 [Example 19, (Z) N-{[5-(4-Dibutylamino-benzytidene)-4-oxo-2-thioxo-thiazolidin-3-yl]-acetyl}-benzenesulfonamide]",112 to 115 °C,129 µM,1770 nM,5 µM,1100 nM
"CCCCCN(CCCCC)c1ccc(/C=C2\SC(=S)N(CC(=O)NS(=O)(=O)c3ccccc3)C2=O)cc1 [Example 22, (Z) N-{2-[5-(4-Dipentylamino-benzylidene)-4-oxo-2-thioxo-thiazolidin-3-yl]-acetyl}-benzenesulfonamide]",121 to 123 °C,> 60 µM,1990 nM,3 µM,1000 nM
"O=C(NS(=O)(=O)CCN1C(=O)/C(=C/c2ccc(N3CCC4CCCCC4C3)cc2)SC1=S)c1ccccc1 (stereo not shown) [Example 29, (Z) 2-{5-[4-(Octahydro-isoquinolin-2-yl)-benzylidene]-4-oxo-2-thioxo-thiazolidin-3-yl}-ethanesulfonic acid benzoylamide]",213 °C,> 100 µM,3420 nM,11 µM,600 nM
"O=C(NS(=O)(=O)CCN1C(=O)/C(=C/c2ccc(N3CCC4CCCCC4C3)cc2)SC1=S)c1ccc(F)cc1 (stereo not shown) [Example 30, (Z) 2-{5-[4(Octahydro-isoquinolin-2-yl)benzylidene]-4-oxo-2′-thioxo-thiazolidin-3-yl}-ethanesulfonic acid 4-fluoro-benzoylamide]",248 °C,> 60 µM,2260 nM,> 100 µM,300 nM
"CCCCCN(CCCCC)c1ccc(/C=C2\SC(=S)N(CCS(=O)(=O)NC(=O)c3ccc(F)cc3)C2=O)cc1 [Example 31, (Z) 2-[5-(4-Dipentylamino-benzylidene)-4-oxo-2-thioxo-thiazolidin-3-yl]-ethanesulfonic acid 4-fluoro-benzoylamide]",195 to 196 °C,> 100 µM,3110 nM,9 µM,300 nM

# Next, values leading:
melting point,IC50 [1],IC50 (Aβ(1-42)),IC50 (Aβ(1-40) [2]),IC50 (Aβ(1-40) [3]),SMILES
198 to 200 °C,38 µM,1940 nM,7 µM,3000 nM,"CCCCCCN(C)c1ccc(/C=C2\SC(=S)N(Cc3nnn[nH]3)C2=O)cc1 [Example 16, (Z) 5-[4-(Hexyl-methyl-amino)benzylidene]-3-(1H-tetrazol-5-ylmethyl)-2-thioxo-thiazolidin-4-one]"
208 to 210 °C,2 µM,1870 nM,10 µM and 5 µM,1000 nM and 1500 nM,CCCCCN(CCCCC)c1ccc(/C=C2\SC(=S)N(Cc3nnn[nH]3)C2=O)cc1 [Example 17]
228 to 230 °C,122 µM,1880 nM,5 µM,600 nM,"CCCCN(CCCC)c1ccc(/C=C2\SC(=S)N(CC(=O)NS(=O)(=O)C(F)(F)F)C2=O)cc1 [Example 18, (Z) N-{[5-(4-Dibutylamino-benzylidene)-4-oxo-2-thioxo-thiazolidin-3-yl]-acetyl}-C,C,C-trifluoro-methanesulfonamide]"
247 °C,30 µM,3330 nM,> 100 µM,1000 nM and 500 nM,"O=C1/C(=C/c2ccc(N3CC[C@@H]4CCCC[C@H]4C3)cc2)SC(=S)N1Cc1nnn[nH]1 [Example 23, (Z) 5-[(4aS,8aR)-4-(Octahydro-isoquinolin-2-yl)-benzylidene]-3-(1H-tetrazol-5-ylmethyl)-2-thioxo-thiazolidin-4-one]"
130 to 132 °C,93 µM,2020 nM,7 µM,2000 nM,"CCCCCN(CCCCC)c1ccc(/C=C2\SC(=S)N(CC(=O)NS(=O)(=O)c3ccc(F)cc3)C2=O)cc1 [Example 27, (Z) N-{2-[5-(4-Dipentylamino-benzylidene)-4-oxo-2-thioxo-thiazolidin-3-yl]-acetyl}-4-fluoro-benzenesulfonamide]"
183 °C,69 µM,2190 nM,21 µM,300 nM,"CCCCN(CCCC)c1ccc(/C=C2\SC(=S)N(CCS(=O)(=O)NC(=O)c3ccccc3)C2=O)cc1 [Example 28, (Z) 2-[5-(4-Dibutylamino-benzylidene)-4-oxo-2-thioxo-thiazolidin-3-yl]-ethanesulfonic acid benzoylamide]"

# From patent US20040197268A1, “Method of imaging amyloid deposits using substituted rhodanine derivatives” (priority 1999, published 2004)
